Reference: patent US12344595B2, “2-amino-n-phenyl-nicotinamides as NAV1.8 inhibitors” (Merck Sharp & Dohme LLC, priority 2018, dated 2025)

Each compound was assayed against human Nav1.8 (Homo sapiens (Human), UniProt Q9Y5Y9) (assay: Nav1.8 Qube automated patch-clamp assay). Conditions: Nav1.8 Qube Assay; human Nav1.8 channels stably expressed in HEK 293 cells.
human Nav1.8, sequence (Q9Y5Y9 whole entry): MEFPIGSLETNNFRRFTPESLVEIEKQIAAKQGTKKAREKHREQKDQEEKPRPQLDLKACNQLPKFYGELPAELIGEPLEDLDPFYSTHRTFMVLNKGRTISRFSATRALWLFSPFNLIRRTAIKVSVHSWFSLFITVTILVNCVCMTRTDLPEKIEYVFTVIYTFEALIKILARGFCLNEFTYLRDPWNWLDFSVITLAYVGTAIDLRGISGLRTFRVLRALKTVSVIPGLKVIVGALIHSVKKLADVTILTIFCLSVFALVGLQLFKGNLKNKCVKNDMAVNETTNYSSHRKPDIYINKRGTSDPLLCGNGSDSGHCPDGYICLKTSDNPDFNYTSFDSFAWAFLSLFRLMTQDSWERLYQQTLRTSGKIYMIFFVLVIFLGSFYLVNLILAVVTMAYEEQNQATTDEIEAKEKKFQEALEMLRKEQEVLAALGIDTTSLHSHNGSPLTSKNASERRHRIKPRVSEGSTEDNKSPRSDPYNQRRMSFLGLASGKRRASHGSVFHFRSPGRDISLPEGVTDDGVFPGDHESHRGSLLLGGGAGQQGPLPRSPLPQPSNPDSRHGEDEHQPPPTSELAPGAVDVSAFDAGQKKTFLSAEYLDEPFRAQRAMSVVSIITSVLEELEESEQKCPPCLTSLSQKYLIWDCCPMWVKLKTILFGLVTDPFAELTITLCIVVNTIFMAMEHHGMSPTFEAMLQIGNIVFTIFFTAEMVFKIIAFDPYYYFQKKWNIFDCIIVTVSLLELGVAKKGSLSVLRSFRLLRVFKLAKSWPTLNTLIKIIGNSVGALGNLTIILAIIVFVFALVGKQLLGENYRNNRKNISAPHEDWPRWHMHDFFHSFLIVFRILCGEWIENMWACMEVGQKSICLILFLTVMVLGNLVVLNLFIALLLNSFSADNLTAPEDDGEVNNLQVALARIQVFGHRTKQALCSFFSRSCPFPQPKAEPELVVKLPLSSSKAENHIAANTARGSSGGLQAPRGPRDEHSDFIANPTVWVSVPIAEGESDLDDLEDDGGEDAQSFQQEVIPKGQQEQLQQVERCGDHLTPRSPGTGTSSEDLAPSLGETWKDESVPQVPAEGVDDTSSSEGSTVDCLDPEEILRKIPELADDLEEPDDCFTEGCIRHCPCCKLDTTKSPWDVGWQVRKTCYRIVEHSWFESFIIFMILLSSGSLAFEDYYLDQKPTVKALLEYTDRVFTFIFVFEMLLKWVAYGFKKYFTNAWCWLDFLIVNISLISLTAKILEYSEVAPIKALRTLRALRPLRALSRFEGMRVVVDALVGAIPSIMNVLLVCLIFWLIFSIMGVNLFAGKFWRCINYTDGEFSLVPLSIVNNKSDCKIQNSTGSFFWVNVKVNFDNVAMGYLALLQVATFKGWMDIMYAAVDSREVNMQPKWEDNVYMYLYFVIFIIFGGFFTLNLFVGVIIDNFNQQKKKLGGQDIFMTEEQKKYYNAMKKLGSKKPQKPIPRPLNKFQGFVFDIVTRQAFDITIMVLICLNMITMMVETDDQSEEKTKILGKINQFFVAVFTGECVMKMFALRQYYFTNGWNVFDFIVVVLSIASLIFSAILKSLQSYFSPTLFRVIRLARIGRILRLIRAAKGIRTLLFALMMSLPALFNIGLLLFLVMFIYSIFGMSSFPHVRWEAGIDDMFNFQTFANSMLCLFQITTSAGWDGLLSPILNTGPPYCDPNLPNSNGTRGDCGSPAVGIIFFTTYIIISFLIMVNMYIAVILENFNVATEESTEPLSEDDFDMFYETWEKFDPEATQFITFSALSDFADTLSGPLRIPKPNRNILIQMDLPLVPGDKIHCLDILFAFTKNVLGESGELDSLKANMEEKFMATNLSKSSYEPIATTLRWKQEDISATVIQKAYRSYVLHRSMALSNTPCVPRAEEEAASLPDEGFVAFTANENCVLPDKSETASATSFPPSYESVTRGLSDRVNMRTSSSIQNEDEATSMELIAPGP
Format: cell-based
Experimental: Qube® Assay Experimental Procedure
Compounds were tested on human Nav1.8 and Nav1.5 channels stably expressed in human embryo kidney (HEK) 293 cells. Sodium current measurements on Qube® were conducted as follows: automated 384-well patch-clamp assays on the Qube® platform (Sophion Biosciences) were used to measure the inhibition of sodium flow through human Nav1.8 and Nav1.5 channels. Whole-cell voltage-clamp recordings were performed in QChips® (Sophion Biosciences) at room temperature. Nav1.8 current measurements on Qube® were obtained as follows: Nav1.8 currents were elicited with a 10 second 1 Hertz (Hz) pulse train from a holding potential of −90 millivolts (mV), delivered to the cells once per minute in the control condition (DMSO only) and after compound addition. The 1 hertz pulse train stimulation consisted of ten test pulses to 10 millivolt (mV) for 20 milliseconds (ms), each of which was followed by a 980 millisecond repolarization to −67 millivolts. At the end of the 10 second pulse train stimulation, a 5 second hyperpolarization step to −100 millivolt (mV) was used to recover Nav1.8 from fast inactivation. The peak currents elicited by the 1st and 10th test pulses were used to determine IC50 values for resting inhibition and inactivated state inhibition. Nav1.5 current measurements on Qube® were obtained as follows: Nav1.5 currents were elicited with a 20 second 3 Hertz pulse train in the control condition (DMSO only) and after compound addition. The pulse train consisted of sixty 20 millisecond test pulses to 0 millivolt from a holding potential of −80 millivolt (mV). The average peak currents elicited by the last 3 test pulses were used to determine IC50 values for Nav1.5 inhibition.
The following buffers were used for the Qube® recordings: External buffer for Nav1.8 Qube® recording: 150 NaCl, 2 CaCl2, 5 KCl, 1 Mg Cl2, 10 HEPES, 12 Dextrose; External buffer for Qube® Nav1.5 recording: 120 N-Methyl-D-Glucamine, 40 NaCl, 1 KCl, 2.7 CaCl2, 5 HEPES, 0.5 MgCl2; and Internal buffer for Qube® recording: 120 CsF, 30 CsCl, 10 EGTA, 5 HEPES, 5 NaF, 2 MgCl2.
For all Qube® experiments offline analysis was used to determine percent inhibition as a function of drug concentration. IC50 values were determined by fitting to the Hill equation.
NS(=O)(=O)c1cccc(NC(=O)c2ccc(Cl)nc2N2CCCCCC2)c1 [Example 89, 2-(azepan-1-yl)-6-chloro-N-(3-sulfamoyl-phenyl)pyridine-3-carboxamide] gave an IC50 of 16 nM.
Cc1cc(Cl)c(C(=O)Nc2cccc(S(N)(=O)=O)c2)c(N2CCCCCC2)n1 [Example 158, 2-(azepan-1-yl)-4-chloro-6-methyl-N-(3-sulfamoylphenyl)-pyridine-3-carboxamide] showed an IC50 of 910 nM.
In the case of NS(=O)(=O)c1cccc(NC(=O)c2cc(C(F)(F)F)cnc2N2CCC(F)(F)CC2)c1F [Example 170, 2-(4,4-difluoropiperidin-1-yl)-N-(2-fluoro-3-sulfamoylphenyl)-5-(trifluoromethyl)nicotinamide], the IC50 is reported as 119 nM.
Cc1nc(N2CCC(F)(F)CC2)c(C(=O)Nc2cccc(C(N)=O)c2)c(C)c1Cl [Example 16, N-(3-carbamoyl-phenyl)-5-chloro-2-(4,4-difluoro-1-piperidyl)-4,6-dimethyl-pyridine-3-carboxamide] showed an IC50 of 24 nM.
Compound CC(C)(C)c1nc(N2CCCCC2)c(C(=O)Nc2cccc(S(N)(=O)=O)c2)cc1Cl [Example 40, 6-(tert-butyl)-5-chloro-2-(piperidin-1-yl)-N-(3-sulfamoylphenyl)nicotinamide] has an IC50 of 1180 nM.
Compound COc1ccc(C(=O)Nc2cccc(S(N)(=O)=O)c2)c(N2CCCCCC2)n1 [Example 91, 2-(azepan-1-yl)-6-methoxy-N-(3-sulfamoyl-phenyl)pyridine-3-carboxamide] has an IC50 of 29 nM.
In the case of NS(=O)(=O)c1cccc(NC(=O)c2cc(C(F)(F)F)cnc2N2CC3CC2CC3(F)F)c1 (single isomer, unassigned) [Example 138, 2-[(1R,4R or 1S,4S)-5,5-difluoro-2-azabicyclo-[2.2.1]heptan-2-yl]-N-(3-sulfamoylphenyl)-5-(trifluoromethyl)-pyridine-3-carboxamide], the IC50 is reported as 881 nM.
NS(=O)(=O)c1cccc(NC(=O)c2cc(C(F)(F)C(F)(F)F)cnc2N2CCCCCC2)c1 [Example 164, 2-(azepan-1-yl)-5-(perfluoroethyl)-N-(3-sulfamoylphenyl)nicotinamide] gave an IC50 of 15 nM.
Cc1cc(Cl)nc(N2CCCC(F)(F)CC2)c1C(=O)Nc1cccc(C(N)=O)c1 [Example 17, N-(3-carbamoyl-phenyl)-6-chloro-2-(4,4-difluoroazepan-1-yl)-4-methyl-pyridine-3-carboxamide] gave an IC50 of 29 nM.
CC(C)CS(=O)(=O)c1cccc(NC(=O)c2cc(C(F)(F)F)cnc2N2CCCCCC2)c1 [Example 119, 2-(azepan-1-yl)-N-(3-isobutylsulfonylphenyl)-5-(trifluoromethyl)-pyridine-3-carboxamide] was tested, and the IC50 was 2400 nM.
Compound CN1Cc2ccc(NC(=O)c3cc(C(F)(F)F)cnc3N3CCCCCC3)cc2S1(=O)=O [Example 122, 2-(azepan-1-yl)-3-((2-methyl-1,1-dioxido-2,3-dihydrobenzo[d]isothiazol-6-yl)-carbamoyl)-5-(trifluoromethyl)pyridine] has an IC50 of 9140 nM.
For NS(=O)(=O)c1cccc(NC(=O)c2cc(C3CCCC3)cnc2N2CCCCC2)c1 [Example 154, 5-cyclopentyl-2-(piperidin-1-yl)-N-(3-sulfamoylphenyl)-nicotinamide], the IC50 was 1790 nM.
Work on CC(C)(C)c1ccc(C(=O)Nc2cccc(S(N)(=O)=O)c2)c(N2CCCCC2)n1 [Example 42, 6-(tert-butyl)-2-(piperidin-1-yl)-N-(3-sulfamoylphenyl)nicotinamide] yielded an IC50 of 2680 nM.
NC(=O)c1cccc(NC(=O)c2cc(Br)cnc2N2CCCCCC2)c1 [Example 38, 2-(azepan-1-yl)-5-bromo-N-(3-carbamoyl-phenyl)pyridine-3-carboxamide] showed an IC50 of 279 nM.
In the case of CC1CN(c2ncc(C(F)(F)F)cc2C(=O)Nc2cccc(S(N)(=O)=O)c2)CCC1(F)F (single isomer, unassigned) [Example 124, (S or R)-2-(4,4-difluoro-3-methylpiperidin-1-yl)-N-(3-sulfamoylphenyl)-5-(trifluoromethyl)nicotinamide], the IC50 is reported as 15 nM.
NS(=O)(=O)c1c(F)ccc(NC(=O)c2cc(C(F)(F)F)cnc2N2CCC(F)(F)CC2)c1F [Example 28, N-(2,4-difluoro-3-sulfamoylphenyl)-2-(4,4-difluoropiperidin-1-yl)-5-(trifluoromethyl)nicotinamide] was tested, and the IC50 was 211 nM.
CS(=O)(=O)c1cccc(NC(=O)c2cc(C(F)(F)F)cnc2N2CCC3(CC2)CC3)c1 [Example 99, 2-(6-azaspiro[2.5]octan-6-yl)-N-(3-methylsulfonylphenyl)-5-(trifluoromethyl)-pyridine-3-carboxamide] gave an IC50 of 131 nM.
NS(=O)(=O)c1cccc(NC(=O)c2cc(C(F)(F)F)cnc2N2CCCC(O)CC2)c1 (stereo not drawn) [Example 65, 2-(4-hydroxyazepan-1-yl)-N-(3-sulfamoyl-phenyl)-5-(trifluoro-methyl)pyridine-3-carboxamide] was tested, and the IC50 was 2210 nM.
CC(C)CC1CCCCCN1c1ncc(C(F)(F)F)cc1C(=O)Nc1cccc(S(N)(=O)=O)c1 (stereo not drawn) [Example 68, 2-(2-isobutylazepan-1-yl)-N-(3-sulfamoyl-phenyl)-5-(trifluoro-methyl)pyridine-3-carboxamide] gave an IC50 of 3650 nM.
Cc1ccc(C(=O)Nc2cccc(C(N)=O)c2)c(N2CCCC(F)(F)CC2)n1 [Example 75, N-(3-carbamoylphenyl)-2-(4,4-difluoroazepan-1-yl)-6-methylnicotinamide] gave an IC50 of 16 nM.
Work on NS(=O)(=O)c1cccc(NC(=O)c2cc(Br)cnc2N2CCCCCC2)c1 [Example 32, 2-(azepan-1-yl)-5-bromo-N-(3-sulfamoyl-phenyl)pyridine-3-carboxamide] yielded an IC50 of 24 nM.
In the case of CS(=O)(=O)c1cccc(NC(=O)c2cc(C(F)(F)F)cnc2N2CCCC(F)(F)C2)c1 [Example 102, 2-(3,3-difluoro-1-piperidyl)-N-(3-methylsulfonylphenyl)-5-(trifluoromethyl)-pyridine-3-carboxamide], the IC50 is reported as 706 nM.
With NS(=O)(=O)c1cccc(NC(=O)c2cc(-c3cccnc3)cnc2N2CCCCCC2)c1 [Example 34, 2-(azepan-1-yl)-5-(3-pyridyl)-N-(3-sulfamoyl-phenyl)pyridine-3-carboxamide] the IC50 was 603 nM.
Compound NC(=O)c1cccc(NC(=O)c2ccc(C(F)(F)F)nc2N2CCC3(CC2)CC3)c1 [Example 83, N-(3-carbamoyl-phenyl)-2-(6-azaspiro[2.5]octan-6-yl)-6-(trifluoro-methyl)-nicotinamide] has an IC50 of 180 nM.
With CS(=O)(=O)c1cccc(NC(=O)c2cc(Cl)cnc2N2CCCC(F)(F)CC2)c1 [Example 173, 5-chloro-2-(4,4-difluoroazepan-1-yl)-N-(3-(methylsulfonyl)phenyl)nicotinamide] the IC50 was 7.8 nM.
With CC1CN(c2ncc(C(F)(F)F)cc2C(=O)Nc2cccc(S(N)(=O)=O)c2)CCC1(F)F (single isomer, unassigned) [Example 123, (R or S)-2-(4,4-Difluoro-3-methylpiperidin-1-yl)-N-(3-sulfamoylphenyl)-5-(trifluoromethyl)nicotinamide] the IC50 was 3 nM.
Work on NS(=O)(=O)c1cc(F)cc(NC(=O)c2cc(C(F)(F)F)cnc2N2CCCCC2)c1 [Example 114, N-(3-fluoro-5-sulfamoyl-phenyl)-2-(1-piperidyl)-5-(tri-fluoromethyl)-pyridine-3-carboxamide] yielded an IC50 of 242 nM.
For N#Cc1cccc(NC(=O)c2cc(C(F)(F)F)cnc2N2CCCCCC2)c1 [Example 21, 2-(azepan-1-yl)-N-(3-cyanophenyl)-5-(trifluoromethyl)pyridine-3-carboxamide], the IC50 was 254 nM.
With Cc1nc(N2CCCCC2)c(C(=O)Nc2cccc(C(N)=O)c2)c(C)c1Cl [Example 19, N-(3-carbamoyl-phenyl)-5-chloro-4,6-dimethyl-2-(1-piperidyl)pyridine-3-carboxamide] the IC50 was 295 nM.
With NS(=O)(=O)c1cccc(NC(=O)c2cc(C(F)(F)F)cnc2N2CCCC3(C2)CC3(F)F)c1 (single isomer, unassigned) [Example 127, 2-[(3R or 3S)-2,2-difluoro-5-azaspiro[2.5]-octan-5-yl]-N-(3-sulfamoylphenyl)-5-(trifluoromethyl)-pyridine-3-carboxamide] the IC50 was 110 nM.
Compound COC1CCN(c2ncc(C(F)(F)F)cc2C(=O)Nc2cccc(S(N)(=O)=O)c2)CC1 [Example 66, 2-(4-methoxy-1-piperidyl)-N-(3-sulfamoylphenyl)-5-(trifluoromethyl) pyridine-3-carboxamide] has an IC50 of 2610 nM.
NS(=O)(=O)c1cccc(NC(=O)c2c(Br)ccnc2N2CCCCCC2)c1 [Example 33, 2-(azepan-1-yl)-4-bromo-N-(3-sulfamoyl-phenyl)pyridine-3-carboxamide] was tested, and the IC50 was 44 nM.
C=CCCc1cnc(N2CCCC(F)(F)CC2)c(C(=O)Nc2cccc(S(N)(=O)=O)c2)c1 [Example 161, 5-(but-3-en-1-yl)-2-(4,4-difluoroazepan-1-yl)-N-(3-sulfamoylphenyl)nicotinamide] gave an IC50 of 3.2 nM.
